From BindingDB's records for patent WO2025049746 (Eikon Therapeutics, 2025)

Key:
[1] = molecular target: T1, Bifunctional 3'-5' exonuclease/ATP-dependent helicase WRN [480-1251] (UniProt Q14191); test: Biochemical Activity Assays
T1 construct: 480-1251

[2] = molecular target: Bifunctional 3'-5' exonuclease/ATP-dependent helicase WRN (Homo sapiens, UniProt Q14191); test: ADP-Glo Kinase Assay
Protocol: ATPase activity was measured using the ADP-Glo Kinase Assay following the manufacturers recommended protocol.

Chain of Bifunctional 3'-5' exonuclease/ATP-dependent helicase WRN (Q14191 whole entry): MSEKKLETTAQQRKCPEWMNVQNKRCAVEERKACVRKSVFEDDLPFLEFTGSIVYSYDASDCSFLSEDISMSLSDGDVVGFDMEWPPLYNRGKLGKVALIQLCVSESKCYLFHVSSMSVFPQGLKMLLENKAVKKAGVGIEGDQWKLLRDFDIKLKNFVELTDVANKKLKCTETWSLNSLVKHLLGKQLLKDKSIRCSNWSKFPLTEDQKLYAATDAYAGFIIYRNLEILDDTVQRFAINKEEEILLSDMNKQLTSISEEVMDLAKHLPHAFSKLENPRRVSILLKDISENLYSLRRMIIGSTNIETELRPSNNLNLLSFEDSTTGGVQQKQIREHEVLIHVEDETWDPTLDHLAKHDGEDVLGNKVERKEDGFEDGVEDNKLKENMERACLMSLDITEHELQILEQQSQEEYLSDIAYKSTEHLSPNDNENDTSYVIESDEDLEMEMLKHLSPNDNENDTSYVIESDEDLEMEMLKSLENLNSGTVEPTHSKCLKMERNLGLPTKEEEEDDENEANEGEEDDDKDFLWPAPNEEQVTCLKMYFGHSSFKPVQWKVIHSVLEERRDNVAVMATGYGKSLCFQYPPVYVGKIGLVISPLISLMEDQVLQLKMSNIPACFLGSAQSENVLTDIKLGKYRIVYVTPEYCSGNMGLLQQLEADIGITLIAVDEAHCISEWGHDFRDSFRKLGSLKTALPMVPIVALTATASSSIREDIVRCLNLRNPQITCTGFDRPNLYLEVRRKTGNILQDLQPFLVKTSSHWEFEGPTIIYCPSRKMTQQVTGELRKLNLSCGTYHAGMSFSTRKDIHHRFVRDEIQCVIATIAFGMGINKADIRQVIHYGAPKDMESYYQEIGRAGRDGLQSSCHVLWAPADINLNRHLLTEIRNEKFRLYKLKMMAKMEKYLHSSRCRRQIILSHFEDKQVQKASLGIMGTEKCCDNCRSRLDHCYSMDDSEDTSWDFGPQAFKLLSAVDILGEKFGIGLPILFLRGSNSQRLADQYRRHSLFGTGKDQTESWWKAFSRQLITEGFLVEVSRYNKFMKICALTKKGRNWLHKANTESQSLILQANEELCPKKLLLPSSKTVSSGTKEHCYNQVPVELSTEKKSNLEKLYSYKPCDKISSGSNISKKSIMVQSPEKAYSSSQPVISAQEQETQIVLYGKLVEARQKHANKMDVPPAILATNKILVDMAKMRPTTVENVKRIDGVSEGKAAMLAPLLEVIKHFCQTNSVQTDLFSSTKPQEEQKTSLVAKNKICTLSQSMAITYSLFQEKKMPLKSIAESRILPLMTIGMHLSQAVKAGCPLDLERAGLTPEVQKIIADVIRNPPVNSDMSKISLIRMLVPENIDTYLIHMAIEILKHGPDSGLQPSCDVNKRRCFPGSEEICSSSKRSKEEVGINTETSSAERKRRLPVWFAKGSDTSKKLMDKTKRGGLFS
T1 sequence (Q14191 480-1251): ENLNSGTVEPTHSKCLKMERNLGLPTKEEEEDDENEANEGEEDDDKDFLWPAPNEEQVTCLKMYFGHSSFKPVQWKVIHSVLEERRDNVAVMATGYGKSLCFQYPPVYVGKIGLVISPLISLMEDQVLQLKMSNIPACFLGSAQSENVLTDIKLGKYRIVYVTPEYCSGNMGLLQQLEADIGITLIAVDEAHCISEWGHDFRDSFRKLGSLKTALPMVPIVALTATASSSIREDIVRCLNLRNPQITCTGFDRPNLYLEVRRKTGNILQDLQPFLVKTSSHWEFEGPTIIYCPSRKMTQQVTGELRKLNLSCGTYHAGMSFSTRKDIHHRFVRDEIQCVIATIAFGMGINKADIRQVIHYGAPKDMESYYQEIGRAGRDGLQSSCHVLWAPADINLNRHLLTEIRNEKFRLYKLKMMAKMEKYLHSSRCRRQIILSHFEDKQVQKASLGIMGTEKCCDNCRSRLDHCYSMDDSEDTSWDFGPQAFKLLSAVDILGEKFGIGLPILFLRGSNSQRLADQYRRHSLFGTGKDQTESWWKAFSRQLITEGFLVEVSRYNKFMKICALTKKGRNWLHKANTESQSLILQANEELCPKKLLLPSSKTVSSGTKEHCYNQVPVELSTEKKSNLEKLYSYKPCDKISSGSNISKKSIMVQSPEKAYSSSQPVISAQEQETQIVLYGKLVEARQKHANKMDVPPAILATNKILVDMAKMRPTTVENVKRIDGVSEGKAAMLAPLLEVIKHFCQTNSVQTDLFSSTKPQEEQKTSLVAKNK

| Compound | IC50 [1] [nM] | IC50 [2] [nM] |
| --- | --- | --- |
| CCc1c(N2CCN(C(=O)c3cc4nnn(C)c4cc3O)CC2)c(=O)n2nc(-c3ccc4c(c3)COC4)nc2n1CC(=O)Nc1ccc(C(F)(F)F)cc1Cl [WO2025049746, Example 433] | 109 | 138 |
| CCc1c(N2CCN(C(=O)c3ncnc(C)c3O)CC2)c(=O)n2nc(-c3ccc4c(c3)CCO[C@H]4C)nc2n1CC(=O)Nc1ccc(C(F)(F)F)cc1Cl [WO2025049746, Example 229] | 30 | 27 |
| CCc1c(N2CCN(C(=O)c3ncnc(C)c3O)CC2)c(=O)n2nc(-c3ccc(NS(N)(=O)=O)cc3)nc2n1CC(=O)Nc1ccc(C(F)(F)F)cc1Cl [WO2025049746, Example 329] | 25 | 21 |
| CCc1c(N2CCN(C(=O)c3cc(N4CCN(C)CC4)nc(C)c3O)CC2)c(=O)n2nc(-c3ccc4c(c3)COC4)nc2n1CC(=O)Nc1ccc(C(F)(F)F)cc1Cl [WO2025049746, Example 450] | 103 | 108 |
| CCc1c(N2CCN(C(=O)c3ncnc(C)c3O)CC2)c(=O)n2nc(-c3ccn4ncc(C)c4c3)nc2n1CC(=O)Nc1ccc(C(F)(F)F)cc1Cl [WO2025049746, Example 272] | 28 | 27 |
| CCc1c(N2CCN(C(=O)c3ncnc(C)c3O)CC2)c(=O)n2nc(-c3cc(F)c4ncccc4c3F)nc2n1CC(=O)Nc1ccc(C(F)(F)F)cc1Cl [WO2025049746, Example 320] | 22 | 19 |
| CCc1c(N2CCN(C(=O)c3nc4n(c(=O)c3O)CCCC4)CC2)c(=O)n2nc(-c3ccc4c(c3)COC4)nc2n1CC(=O)Nc1ccc(C(F)(F)F)cc1Cl [WO2025049746, Example 427] | 19 | 19 |
| CCc1c(N2CCN(C(=O)c3ncnc(C)c3O)CC2)c(=O)n2nc(-c3ccc4c(c3)COC4)nc2n1CC(=O)Nc1ccc(SC(F)(F)F)cc1Cl [WO2025049746, Example 409] | 25 | 31 |
| CCc1c(N2CCN(C(=O)c3cn(C)nc3O)CC2)c(=O)n2nc(N(C)C)nc2n1CC(=O)Nc1ccc(C(F)(F)F)c2c1CC2 [WO2025049746, Example 107] | 129 | 160 |
| CCc1c(N2CCN(C(=O)c3ncnc(C)c3O)CC2)c(=O)n2nc(-c3ccc4c(c3)COC4)nc2n1CC(=O)Nc1ccc(Cl)c(OC(F)F)c1Cl [WO2025049746, Example 407] | 25 | 30 |
| CCc1c(N2CCN(C(=O)Cn3cncn3)CC2)c(=O)n2nc(C3=CCOCC3)nc2n1CC(=O)Nc1ccc(C(F)(F)F)cc1Cl [WO2025049746, Example 61] | 66.7 | 125 |
| CCc1c(N2CCN(C(=O)c3ncnc(C)c3O)CC2)c(=O)n2nc(-c3cc4c(cc3F)[C@@H](OC)CC4)nc2n1CC(=O)Nc1ccc(C(F)(F)F)cc1Cl [WO2025049746, Example 244] | 23 | 24 |
| CCc1c(N2CCN(C(=O)c3ncnc(C)c3O)CC2)c(=O)n2nc(-c3ccc4nonc4c3)nc2n1CC(=O)Nc1ccc(C(F)(F)F)cc1Cl [WO2025049746, Example 234] | 75 | 67 |
| CCc1c(N2CCN(C(=O)c3ncnc(C)c3O)CC2)c(=O)n2nc(-c3ccc4c(c3)CCO[C@@H]4C)nc2n1CC(=O)Nc1ccc(C(F)(F)F)cc1Cl [WO2025049746, Example 228] | 28 | 32 |
| CCc1c(N2CCN(C(=O)c3ncnc(C)c3O)CC2)c(=O)n2nc(C3=CCOCC3)nc2n1CC(=O)NC1CC2(C1)CC(F)(F)C2 [WO2025049746, Example 357] | 5200 | 4820 |
| CCc1c(N2CCN(C(=O)c3ncnc(C)c3O)CC2)c(=O)n2nc(N3CCC3)nc2n1CC(=O)Nc1c(Cl)cc(C(F)(F)F)c2c1CC2 [WO2025049746, Example 391] | 82 | 93 |
| CCc1c(N2CCN(C(=O)C3(CO)CC3)CC2)c(=O)n2nc(C3=CCOCC3)nc2n1CC(=O)Nc1ccc(C(F)(F)F)cc1Cl [WO2025049746, Example 55] | 3350 | 5740 |
| CCc1c(N2CCN(C(=O)c3ncnc(C)c3O)CC2)c(=O)n2nc(-c3cnc4c(c3)CCO4)nc2n1CC(=O)Nc1ccc(C(F)(F)F)cc1Cl [WO2025049746, Example 157] | 37 | 51 |
| CCc1c(N2CCN(C(=O)c3ncnc(C)c3O)C[C@@H]2C)c(=O)n2nc(-c3ccc4c(c3)COC4(C)C)nc2n1CC(=O)Nc1ccc(C(F)(F)F)cc1Cl [WO2025049746, Example 453] | 50 | 39 |
| CCc1c(N2CCN(C(=O)c3ncnc(C)c3O)[C@H](C)C2)c(=O)n2nc(-c3ccc4c(c3)COC4(C)C)nc2n1CC(=O)Nc1ccc(C(F)(F)F)cc1Cl [WO2025049746, Example 457] | 40 | 39 |
| CCc1c(N2CCN(C(=O)c3ncnc(C)c3O)CC2)c(=O)n2nc(-c3cc(C)c4c(c3)CCO4)nc2n1CC(=O)Nc1ccc(C(F)(F)F)cc1Cl [WO2025049746, Example 171] | 42 | 58 |
| CCc1c(N2CCN(C(=O)c3ncnc(C)c3O)CC2)c(=O)n2nc(-c3ccc4c(cnn4C)c3)nc2n1CC(=O)Nc1ccc(C(F)(F)F)cc1Cl [WO2025049746, Example 321] | 23 | 20 |

| Compound | IC50 [1] [nM] | IC50 [2] [nM] |
| --- | --- | --- |
| CCc1c(N2CCN(C(=O)c3ncnc4cc[nH]c34)CC2)c(=O)n2nc(-c3ccc4c(c3)COC4)nc2n1CC(=O)Nc1ccc(C(F)(F)F)cc1Cl [WO2025049746, Example 444] | 40 | 44 |
| CCc1c(N2CCN(C(=O)c3ncnc(C)c3O)CC2)c(=O)n2nc(-c3cc4cn(C(F)F)nc4cc3F)nc2n1CC(=O)Nc1ccc(C(F)(F)F)cc1Cl [WO2025049746, Example 291] | 31 | 30 |
| CCc1c(N2CCC(N(C)C(=O)c3ncnc(C)c3O)C2)c(=O)n2nc(C3=CCOCC3)nc2n1CC(=O)Nc1ccc(C(F)(F)F)cc1Cl (stereo unspecified) [WO2025049746, Example 339] | 2340 | 29700 |
| CCc1c(N2CCN(C(=O)c3ncnc(C)c3O)CC2)c(=O)n2nc(-c3ccc4c(c3)COC4)nc2n1CC(=O)Nc1ccc(C=C(F)F)cc1Cl [WO2025049746, Example 421] | 25 | 30 |
| CCc1c(N2CCN(C(=O)c3ncnc(C)c3O)CC2)c(=O)n2c(C)c(-c3ccc4c(c3)COC4)nc2n1CC(=O)Nc1ccc(C(F)(F)F)cc1Cl [WO2025049746, Example 451] | 6910 | 6940 |
| CCc1c(N2CCN(C(=O)c3ncnc(C)c3O)CC2)c(=O)n2nc(-c3cc4c(cc3F)O[C@H](C)C4)nc2n1CC(=O)Nc1ccc(C(F)(F)F)cc1Cl [WO2025049746, Example 250] | 20 | 22 |
| CCc1c(N2CCN(C(=O)c3ncnc(C)c3O)CC2)c(=O)n2nc(C3=CCOCC3)nc2n1CC(=O)Nc1ccc(OC(F)(F)Cl)cc1Cl [WO2025049746, Example 355] | 39 | 49 |
| CCc1c(N2CCN(C(=O)c3ncnc(C)c3O)CC2)c(=O)n2c(CO)c(-c3ccc4c(c3)COC4)nc2n1CC(=O)Nc1ccc(C(F)(F)F)cc1Cl [WO2025049746, Example 452] | 29700 | 9850 |
| CCc1c(N2CCN(C(=O)c3ncnc(C)c3O)CC2)c(=O)n2nc(C3=CCOCC3)nc2n1CC(=O)NC1CC2(CC(F)C2)C1 (stereo unspecified) [WO2025049746, Example 372] | 1390 | 1830 |
| CCc1c(N2CCN(C(=O)c3ncnc(C)c3O)CC2)c(=O)n2nc(-c3ccc4c(c3)COC4(C)C)nc2n1CC(=O)Nc1ccc(C(F)(F)F)cc1Cl [WO2025049746, Example 164] | 45 | 44 |
| CCc1c(N2CCN(C(=O)c3ncnc(C)c3O)CC2)c(=O)n2nc(-c3ccc4c(c3)COC43COC3)nc2n1CC(=O)Nc1ccc(C(F)(F)F)cc1Cl [WO2025049746, Example 278] | 36 | 31 |
| CCc1c(N2CCN(C(=O)c3nccc4nn[nH]c34)CC2)c(=O)n2nc(C3=CCOCC3)nc2n1CC(=O)Nc1ccc(C(F)(F)F)cc1Cl [WO2025049746, Example 48] | 19.8 | 27 |
| CCc1c(N2CCN(C(=O)c3nccc4nc[nH]c34)CC2)c(=O)n2nc(N(C)C)nc2n1CC(=O)Nc1ccc(C(F)(F)F)c2c1CC2 [WO2025049746, Example 108] | 15.5 | 21.8 |
| CCc1c(N2CCN(C(=O)c3nc4n(c(=O)c3O)CCOC4)CC2)c(=O)n2nc(-c3ccc4c(c3)COC4(C)C)nc2n1CC(=O)Nc1ccc(C(F)(F)F)cc1Cl [WO2025049746, Example 462] | 39.4 | 35.4 |
| CCc1c(N2CCN(C(=O)c3ncnc(C)c3O)CC2)c(=O)n2nc(-c3ccc4c(c3)N(C)C(=O)CO4)nc2n1CC(=O)Nc1ccc(C(F)(F)F)cc1Cl [WO2025049746, Example 198] | 33 | 48 |
| CCc1c(N2CCN(C(=O)c3ncnc(C)c3O)[C@@H]3CC[C@@H]32)c(=O)n2nc(-c3ccc4c(c3)COC4(C)C)nc2n1CC(=O)Nc1ccc(C(F)(F)F)cc1Cl [WO2025049746, Example 459] | 81 | 91 |
| CCc1c(N2CCN(C(=O)c3ncnc(C)c3O)CC2)c(=O)n2nc(-c3ccc4nn(C(F)F)cc4c3)nc2n1CC(=O)Nc1ccc(C(F)(F)F)cc1Cl [WO2025049746, Example 248] | 26 | 24 |
| CCc1c(N2CCN(C(=O)c3ccnc(C)c3O)CC2)c(=O)n2nc(-c3ccc4c(c3)COC4(C)C)nc2n1CC(=O)Nc1ccc(C(F)(F)F)cc1Cl [WO2025049746, Example 455] | 48 | 40 |
| CCc1c(N2CCN(C(=O)c3ncnc(C)c3O)CC2)c(=O)n2nc(-c3cccc4c3OC(F)(F)O4)nc2n1CC(=O)Nc1ccc(C(F)(F)F)cc1Cl [WO2025049746, Example 232] | 67 | 77 |
| CCc1c(N2CCN(C(=O)c3ncnc(C)c3O)CC2)c(=O)n2nc(-c3ccc4c(c3)CN(C)C4(C)C)nc2n1CC(=O)Nc1ccc(C(F)(F)F)cc1Cl [WO2025049746, Example 261] | 33 | 31 |
| CCc1c(N2CCN(C(=O)c3ncnc(C)c3O)CC2)c(=O)n2nc(-c3ccc4c(c3)C(C)(C)CO4)nc2n1CC(=O)Nc1ccc(C(F)(F)F)cc1Cl [WO2025049746, Example 193] | 53 | 73 |
